The values that follow come from patent US7528223B2 (priority 2002, dated 2009).

Test [1] concerns peptide-specific T cells in patient-derived peripheral blood mononuclear cells (PBMC). Type of test: cell-based, human (HLA-A*0201 HCV positive patient). Conditions: for Counts-mean size >10 / Counts-mean size >25 / Counts-mean size >75: IFN-g ELIspot spot counts, Patient, Plate 11_01_03, patient-derived PBMC; for Counts-mean size >10: spot size >10; for Counts-mean size >25: spot size >25; for Counts-mean size >75: spot size >75; for number of peptide-specific T cells (IFN-g Elispot): PBMC of patient cured of chronic HCV infection, frozen 1996 (Table 5, FIG. 3). The text has this:
Since those ncORF peptides are immunogenic in tg-mice, the present peptides were ananlysed in an ELIspot assay on PBL's from HCV+ patients.
Patient-derived peripheral blood mononuclear cells (PBMC) frozen in 1996 were thawed to perform an IFN-g Elispot assay with the following peptides: […]

For test [2], the system named is peptide-specific IFN-γ producing cells. On the set-up: species or system C57B1/6 mice. Conditions: mouse, in vivo, sc.

As to FMLGALLPI [Ipep 1373], in test [1], the “Counts-mean size >10” value stood at 159, the “Counts-mean size >25” value turned out to be 86, the “Counts-mean size >75” value is 3 and the “number of peptide-specific T cells (IFN-g Elispot)” value (“number of peptide-specific T cells” for short) is “high numbers of peptide-specific T cells”.
As to IASNENMETM [p1574, reference compound], the “peptide-specific IFN-γ spots (ELIspot)” value in test [2] was “do not show any specific spots”.
For the sequence LLLQRWALV [Ipep 1372], in test [1], the “Counts-mean size >10” value is reported as 43, the “Counts-mean size >25” value amounted to 36, the “Counts-mean size >75” value is given as 13 and the “number of peptide-specific T cells” value is “high numbers of peptide-specific T cells”.
Turning to SSIAAQDAL [p1600], the “peptide-specific IFN-γ spots (ELIspot)” value in test [2] is given as “do not show any specific spots”.
In the case of TLWAGPLLKV [Ipep 1371], in test [1], the “Counts-mean size >10” value was 24, the “Counts-mean size >25” value worked out at 15, the “Counts-mean size >75” value came out at 2 and the “number of peptide-specific T cells” value was “high numbers of peptide-specific T cells”.
Take TMLYNKMEF [p1569]: in test [2], the “peptide-specific IFN-γ spots (ELIspot)” value is given as “specifically release IFN-γ”.
As to VTILNLALL [p1664], the “peptide-specific IFN-γ spots (ELIspot)” value in test [2] is listed as “specifically release IFN-γ”.
